According to ChEMBL document CHEMBL5724914, “Linking interpersonal differences in gut microbiota composition and drug biotransformation activity” (2024):

How the values were obtained:
[1] = (§1) The drug is tested on Z-006 corresponding to mouse gut metagenome with ENA study accession number: PRJEB37062 and ENA sample accession number: ERS12561806 for biotransformation under anaerobic condition. The drug concentrations were measured over 9 timepoints collected between 0 and 24 hours of incubation by liquid-chromatography-coupled mass spectrometry (LC–MS); details: 2 µM
[2] = as §1, with “WLS-038” for “Z-006”, “human” for “mouse”, “ERS12561745” for “ERS12561806”; details: 2 µM
[3] = as §1, with “WLS-006” for “Z-006”, “human” for “mouse”, “ERS12561741” for “ERS12561806”; details: 2 µM
[4] = human gut metagenome, 24 h, 2 µM
[5] = as §1, with “WLS-220” for “Z-006”, “human” for “mouse”, “ERS12561769” for “ERS12561806”; details: 2 µM
[6] = as §1, with “Z-018” for “Z-006”, “pig” for “mouse”, “ERS12561817” for “ERS12561806”; details: 2 µM
[7] = as §1, with “WLS-073” for “Z-006”, “human” for “mouse”, “ERS12561749” for “ERS12561806”; details: 2 µM
[8] = as §1, with “WLS-090” for “Z-006”, “human” for “mouse”, “ERS12561753” for “ERS12561806”; details: 2 µM
[9] = as §1, with “Z-025” for “Z-006”, “rabbit” for “mouse”, “ERS12561824” for “ERS12561806”; details: 2 µM
[10] = human gut metagenome, 24 h, 2 µM; remark: listed apart in the source
[11] = as §1, with “WLS-240” for “Z-006”, “human” for “mouse”, “ERS12561773” for “ERS12561806”; details: 2 µM
[12] = human gut metagenome, 24 h, 2 µM; remark: listed apart in the source
[13] = human gut metagenome, 24 h, 2 µM; remark: listed apart in the source
[14] = as §1, with “WLS-370” for “Z-006”, “human” for “mouse”, “ERS12561793” for “ERS12561806”; details: 2 µM
[15] = as §1, with “WLS-310” for “Z-006”, “human” for “mouse”, “ERS12561785” for “ERS12561806”; details: 2 µM
[16] = human gut metagenome, 24 h, 2 µM; remark: listed apart in the source
[17] = human gut metagenome, 24 h, 2 µM; remark: listed apart in the source
[18] = as §1, with “WLS-039” for “Z-006”, “human” for “mouse”, “ERS12561746” for “ERS12561806”; details: 2 µM
[19] = human gut metagenome, 24 h, 2 µM; remark: listed apart in the source
[20] = as §1, with “Z-003” for “Z-006”, “pig” for “mouse”, “ERS12561803” for “ERS12561806”; details: 2 µM
Further: call rule not given here.

Bacterial Biotransformation [1]	Bacterial Biotransformation [2]	Bacterial Biotransformation [3]	Bacterial Biotransformation [4]	Bacterial Biotransformation [5]	Bacterial Biotransformation [6]	Bacterial Biotransformation [7]	Bacterial Biotransformation [8]	Bacterial Biotransformation [9]	Bacterial Biotransformation [10]	Bacterial Biotransformation [11]	Bacterial Biotransformation [12]	Bacterial Biotransformation [13]	Bacterial Biotransformation [14]	Bacterial Biotransformation [15]	Bacterial Biotransformation [16]	Bacterial Biotransformation [17]	Bacterial Biotransformation [18]	Bacterial Biotransformation [19]	Bacterial Biotransformation [20]	Compound
Compound NOT metabolized	Compound NOT metabolized	Compound NOT metabolized	Compound NOT metabolized	Compound NOT metabolized	Compound NOT metabolized	Compound NOT metabolized	Compound NOT metabolized	Compound NOT metabolized	Compound NOT metabolized	Compound NOT metabolized	Compound NOT metabolized	Compound NOT metabolized	Compound NOT metabolized	Compound NOT metabolized	Compound NOT metabolized	Compound NOT metabolized	Compound NOT metabolized	Compound NOT metabolized	Compound NOT metabolized	CCOc1ccc(NC(C)=O)cc1 [PHENACETIN]
Compound metabolized	Compound metabolized	Compound metabolized	Compound metabolized	Compound metabolized	Compound metabolized	Compound metabolized	Compound metabolized	Compound metabolized	Compound metabolized	Compound metabolized	Compound metabolized	Compound metabolized	Compound metabolized	Compound metabolized	Compound metabolized	Compound metabolized	Compound metabolized	Compound metabolized	Compound metabolized	Nc1ccc(/N=N/c2ccccc2)c(N)n1 [PHENAZOPYRIDINE]
Compound metabolized	Compound metabolized	Compound metabolized	Compound metabolized	Compound metabolized	Compound metabolized	Compound metabolized	Compound metabolized	Compound metabolized	Compound metabolized	Compound metabolized	Compound metabolized	Compound metabolized	Compound metabolized	Compound metabolized	Compound metabolized	Compound metabolized	Compound metabolized	Compound metabolized	Compound metabolized	CC(C(=O)O)c1ccc2c(c1)Cc1cccnc1O2 (stereo not given) [PRANOPROFEN]
Compound NOT metabolized	Compound NOT metabolized	Compound NOT metabolized	Compound metabolized	Compound NOT metabolized	Compound NOT metabolized	Compound NOT metabolized	Compound metabolized	Compound NOT metabolized	Compound NOT metabolized	Compound metabolized	Compound NOT metabolized	Compound NOT metabolized	Compound NOT metabolized	Compound NOT metabolized	Compound NOT metabolized	Compound NOT metabolized	Compound NOT metabolized	Compound NOT metabolized	Compound NOT metabolized	CCc1nc(N)nc(N)c1-c1ccc(Cl)cc1 [PYRIMETHAMINE]
Compound NOT metabolized	Compound NOT metabolized	Compound NOT metabolized	Compound NOT metabolized	Compound NOT metabolized	Compound NOT metabolized	Compound NOT metabolized	Compound NOT metabolized	Compound NOT metabolized	Compound NOT metabolized	Compound NOT metabolized	Compound NOT metabolized	Compound NOT metabolized	Compound NOT metabolized	Compound NOT metabolized	Compound NOT metabolized	Compound NOT metabolized	Compound NOT metabolized	Compound NOT metabolized	Compound metabolized	COc1ccccc1OCC(O)CN1CCN(CC(=O)Nc2c(C)cccc2C)CC1 (stereo not given) [RANOLAZINE]
Compound NOT metabolized	Compound NOT metabolized	Compound metabolized	Compound metabolized	Compound NOT metabolized	Compound NOT metabolized	Compound NOT metabolized	Compound metabolized	Compound metabolized	Compound NOT metabolized	Compound metabolized	Compound NOT metabolized	Compound NOT metabolized	Compound NOT metabolized	Compound metabolized	Compound metabolized	Compound NOT metabolized	Compound NOT metabolized	Compound NOT metabolized	Compound NOT metabolized	CCCc1nn(C)c2c(=O)[nH]c(-c3cc(S(=O)(=O)N4CCN(C)CC4)ccc3OCC)nc12.O=C(O)CC(O)(CC(=O)O)C(=O)O [SILDENAFIL CITRATE]
Compound NOT metabolized	Compound NOT metabolized	Compound NOT metabolized	Compound NOT metabolized	Compound NOT metabolized	Compound NOT metabolized	Compound NOT metabolized	Compound NOT metabolized	Compound metabolized	Compound NOT metabolized	Compound NOT metabolized	Compound NOT metabolized	Compound NOT metabolized	Compound NOT metabolized	Compound NOT metabolized	Compound NOT metabolized	Compound metabolized	Compound NOT metabolized	Compound NOT metabolized	Compound NOT metabolized	CN1C(C(=O)Nc2ccccn2)=C(O)c2sccc2S1(=O)=O [TENOXICAM]
Compound NOT metabolized	Compound NOT metabolized	Compound metabolized	Compound metabolized	Compound metabolized	Compound NOT metabolized	Compound metabolized	Compound metabolized	Compound NOT metabolized	Compound metabolized	Compound metabolized	Compound NOT metabolized	Compound NOT metabolized	Compound metabolized	Compound NOT metabolized	Compound NOT metabolized	Compound NOT metabolized	Compound NOT metabolized	Compound NOT metabolized	Compound metabolized	O=c1n(CCCN2CCN(c3cccc(Cl)c3)CC2)nc2ccccn12 [TRAZODONE]
